The results in this text go back to ChEMBL document CHEMBL4400517, “Marine natural products as potential anti-tubercular agents” (Eur J Med Chem, 2019).

Molecules are shown by their SMILES. Converted amounts (≈) assume the structure as drawn.

For the first test, the system named is Mycobacterium tuberculosis. Put plainly: Antibiofilm activity against Mycobacterium bovis BCG. It is filed as functional, organism-based. The following applies: variant bovis BCG.
Compound `COc1cc(O)c2c(c1)[C@@]13CC(=C(C)C)C[C@H]1[C@](C)(CCC=C(C)C)[C@@](Br)(C2=O)C3=O` displayed a half-inhibitory concentration (IC50) of 640 to 10300 nM.

`COc1cc(OC)c2c(c1)[C@@]13CC(=C(C)C)C[C@H]1[C@](C)(CCC=C(C)C)[C@@](Br)(C2=O)C3=O`: the IC50 lay within 160 to 2500 nM.

For `CC(C)=C1C[C@H]2C(C)(C)[C@@]3(Br)C(=O)c4c(O)cc(O)cc4[C@]2(C1)C3=O`, the IC50 lay within 220 to 13900 nM.

In turn, `CO[C@H]1/C=C/O[C@@]2(C)Oc3c(C)c(O)c4c(O)c(c(/C=N/N5CCN(C)CC5)c(O)c4c3C2=O)NC(=O)/C(C)=C\C=C\[C@H](C)[C@H](O)[C@@H](C)[C@@H](O)[C@@H](C)[C@H](OC(C)=O)[C@@H]1C` [RIFAMPIN] had an IC50 of 1220 nM.

In another test the test system is Mycobacterium tuberculosis. In words: Antimycobacterial activity against Mycobacterium bovis BCG. It is filed as functional. The following applies: variant bovis BCG.
The compound `COc1ccc2c(c1)CC1=C2[C@H](O)[C@@]2(O)C(=O)N3CCC[C@H]3C(=O)N2[C@H]1C=C(C)C` had an MIC of 2.41 µM (≈ 0.989 µg/mL).

For `NNC(=O)c1ccncc1` [ISONIAZID], the MIC was determined as 0.36 µM (≈ 0.0494 µg/mL). Consider `O=C1N[C@@H](Cc2c[nH]c3ccccc23)C(=O)N2CCC[C@@H]12` [BREVIANAMIDE F], for which the MIC worked out at 44.2 µM (≈ 12.5 µg/mL). Turning to `COC(=O)Nc1coc(C(=O)Nc2coc(C(=O)NCCc3ccc(O)cc3)c2)c1` [PROXIMICIN B], the MIC worked out at 15.1 µM (≈ 6.25 µg/mL). The same measure, in the same setting: as for `C=CC(C)(C)c1[nH]c2ccccc2c1/C=c1\[nH]c(=O)c2n(c1=O)CCC=2C1=c2c(=O)[nH]/c(=C\c3c(C(C)(C)C=C)[nH]c4ccccc34)c(=O)n2CC1`, the figure is 9.03 µM (≈ 6.26 µg/mL); as for `COC(=O)N[C@H]1[C@@H](C)O[C@@H](O[C@H]2C/C=C(\C)[C@@H]3C=C[C@@H]4[C@@H](O[C@@H]5C[C@@H](O[C@@H]6C[C@@H](O)[C@@H](O[C@H]7C[C@@H](C)[C@H](OC)[C@H](O)C7)[C@H](C)O6)[C@@H](O)[C@H](C)O5)[C@@H](C)C[C@H](C)[C@H]4[C@]3(C)C(=O)C3=C(O)[C@@]4(C[C@@H](C)C(CO)=C[C@H]4/C=C/2C)OC3=O)C[C@]1(C)[N+](=O)[O-]`, 0.66 µM (≈ 0.782 µg/mL); as for `C1=C2CCCC/C=C\C=C\CCN3CC[C@@H]4[C@H](CCCCCC/C=C\C=C/CCN(C2)C[C@H]14)C3` (relative stereo) [HALICYCLAMINE A], 2.16 to 10.8 µM (≈ 1 to 5.01 µg/mL). As to `COC(=O)N[C@H]1[C@@H](C)O[C@@H](O[C@H]2C/C=C(\C)[C@@H]3C=C[C@@H]4[C@@H](O[C@@H]5C[C@@H](O[C@@H]6C[C@@H](O)[C@@H](O[C@H]7C[C@@H](C)[C@H](OC)[C@H](O)C7)[C@H](C)O6)[C@@H](O)[C@H](C)O5)[C@@H](C)C[C@H](C)[C@H]4[C@]3(C)C(=O)C3=C(O)[C@@]4(C[C@@H](C)C(CO)=C[C@H]4/C=C/2C)OC3=O)C[C@]1(C)N`, the MIC was 1.35 µM (≈ 1.56 µg/mL). Take `COC(=O)N[C@H]1[C@@H](C)O[C@@H](O[C@H]2C/C=C(\C)[C@@H]3C=C[C@@H]4[C@@H](O[C@@H]5C[C@@H](O[C@@H]6C[C@@H](O)[C@@H](O[C@H]7C[C@@H](C)[C@H](OC)[C@H](O)C7)[C@H](C)O6)[C@@H](O)[C@H](C)O5)[C@@H](C)C[C@H](C)[C@H]4[C@]3(C)C(=O)C3=C(O)[C@@]4(C[C@@H](C)C(COC(C)=O)=C[C@H]4/C=C/2C)OC3=O)C[C@]1(C)N`: the MIC is 1.3 µM (≈ 1.56 µg/mL).

The test system of another test is Mycobacterium tuberculosis. Put plainly: Antibiofilm activity against Mycobacterium bovis BCG after 5 weeks. It is filed as functional. The following applies: variant bovis BCG.
In turn, `CC(C)=C/C=C\[C@H](C)[C@H]1CC[C@]2(C)C[C@H]3[C@H](C(=O)C[C@@]3(C)O)/C(C=O)=C\C[C@@H]12` gave an MIC of 8.2 µM (≈ 3.15 µg/mL).
